Among the data in patent US12590093B2, “Indolo[2′,3′:3,4]pyrido[2,1-b]quinazoline compound and use thereof” (INSTITUTE OF MEDICINAL BIOTECHNOLOGY CHINESE ACADEMY OF …, priority 2019, dated 2026) are maximal fold induction and AMPK level values, retold here.

Assay [1] relates to ABCA1. Nature of the assay: ABCA1 up-regulation, luciferase reporter in ABCA1P-LUC HepG2 cells. Type of assay: cell-based. The following applies: Homo sapiens, 18 h, maximum up-regulation fold of luciferase activity versus DMSO, read-out: ABCA1 max. As for the experimental part: Experiments were conducted to detect whether the compounds of the disclosure can pharmacologically up-regulate the expression of ABCA1 and SR-BI. Firstly, ABCA1P-LUC HepG2 cells or SR-BI-LUC HepG2 cells in logarithmic growth phase were digested, diluted in cell culture medium, and counted. Cells were seeded into 96-well plates at a density of 5×10^5/ml (100 μL of the single-cell suspension per well). After cells fully adhered (about 6 h), the medium containing 10% FBS was removed, and the cells were gently washed with PBS. Serum free MEM-EBSS medium (200 μL per test well) and 2 μL of the compounds to be tested (at a final concentration of 10 μg/mL) were added to each test well, and meanwhile, DMSO at a corresponding concentration was added to the control well. After 18-24 h, the medium was removed. Cell Luciferase activity was measured by a method as described in the Luciferase Assay System. By optimizing the final concentration of DMSO, the treatment time of the compounds on the cells and the number of cells seeded into each well during the screening, the final screening conditions were determined as follows: each well is seeded with 5×10^4 cells, DMSO is added at a final concentration of 1%, and the sample is treated for 18 h.
The ratio of change of luciferase activity is calculated with the following formula: Ratio of change (%)=A/B×100;
wherein A is the luciferase activity (RLU) measured after the compound to be tested is added, and B is the luciferase activity (RLU) measured after the blank control (DMSO) is added. The luciferase activity of cells in each well was measured, and the dose-effect relationship between the concentration of the compound and the ratio of change of the luciferase activity was determined to calculate the EC50.

The test system of assay [2] is AMPK. Put plainly: AMPK level in RAW 264.7 cells by western-blot. The settings on record: 1 μM, 18-24 h treatment, FIG. 11. Type of assay: cell-based, Murine. As to the method:
Murine macrophages RAW 264.7 cells were subcultured about every 48 h. When the cells were approximately 100% confluent, the old culture medium was removed, and the cells were washed with PBS and digested with trypsin at an appropriate amount for about 2 min at RT. After the digestion solution was removed, the RPMI-1640 complete medium containing 10% FBS was added immediately to inhibit the activity of trypsin. The cells in the culture flask were repeatedly and gently blown with a curved straw, so that they were completely detached from the bottom of the flask and dispersed into the single-cell suspension. The cells were seeded into a new cell flask at a density of 1:4-1:6, and added with an appropriate amount of the complete medium. The flask was placed in an incubator and cultured at 37° C., 5% CO2. RAW264.7 cells were pretreated with si-AMPK (AMPK siRNA) for 24 h, and then treated with compound TR3 (1 μM) for 24 h. The expression of ABCA1 and AMPK was detected by western-blot.
The effect of TR3 on AMPK was detected by western-blot.

Molecules are shown by their SMILES.

As to `c1ccc2c(c1)CN1CCc3c([nH]c4ccccc34)C1=N2` [TR3, 5,7,8,13-tetrahydroindolo[2′,3′:3,4]pyrido[2,1-b]quinazoline], the maximal fold induction in assay [1] worked out at 2.26. Further, the AMPK level entry in assay [2] is recorded as “significantly up-regulated”.
